Experimental findings from ChEMBL document CHEMBL4387778, “Dual functional cholinesterase and PDE4D inhibitors for the treatment of Alzheimer's disease: Design, synthesis and evaluation of tacrine-pyrazolo[3,4-b]pyridine hybrids” (Bioorg Med Chem Lett, 2019) are described below.

Each structure is given as a SMILES string.

Experiment [1] concerns the target 3',5'-cyclic-AMP phosphodiesterase 4D (Homo sapiens, UniProt Q08499).
Description: Inhibition of recombinant human PDE4D2 catalytic domain (86 to 413 residues) expressed in Escherichia coli BL21 codonplus cells using [3H]cAMP as substrate preincubated for 15 mins followed by substrate addition by liquid scintillation counting method
For the next experiment, the target named is Cholinesterase (Equus caballus, UniProt P81908). In words: Inhibition of equine serum BuchE using butyrylthiocholine as substrate by Ellman's method.
Another experiment addresses Acetylcholinesterase (Electrophorus electricus, UniProt O42275). In words: Inhibition of electric eel AchE using acetylthiocholine as substrate by Ellman's method.

Cholinesterase, sequence (P81908 whole entry): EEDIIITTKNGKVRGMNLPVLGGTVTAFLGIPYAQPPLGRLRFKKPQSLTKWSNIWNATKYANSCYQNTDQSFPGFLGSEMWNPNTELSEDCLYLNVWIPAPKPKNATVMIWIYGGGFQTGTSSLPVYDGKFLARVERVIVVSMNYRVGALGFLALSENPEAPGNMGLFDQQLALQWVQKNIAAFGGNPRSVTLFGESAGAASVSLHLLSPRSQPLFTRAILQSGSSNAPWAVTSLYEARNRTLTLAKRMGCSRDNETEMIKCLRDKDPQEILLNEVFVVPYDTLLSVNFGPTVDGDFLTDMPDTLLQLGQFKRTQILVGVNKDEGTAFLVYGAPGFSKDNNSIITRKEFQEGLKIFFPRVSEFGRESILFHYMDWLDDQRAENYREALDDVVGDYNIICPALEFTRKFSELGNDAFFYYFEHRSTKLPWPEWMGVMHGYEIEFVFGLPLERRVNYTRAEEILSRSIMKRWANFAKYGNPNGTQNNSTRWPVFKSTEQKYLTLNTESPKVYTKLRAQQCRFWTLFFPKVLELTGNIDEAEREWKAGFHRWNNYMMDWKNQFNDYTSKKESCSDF
Acetylcholinesterase, sequence (O42275 whole entry): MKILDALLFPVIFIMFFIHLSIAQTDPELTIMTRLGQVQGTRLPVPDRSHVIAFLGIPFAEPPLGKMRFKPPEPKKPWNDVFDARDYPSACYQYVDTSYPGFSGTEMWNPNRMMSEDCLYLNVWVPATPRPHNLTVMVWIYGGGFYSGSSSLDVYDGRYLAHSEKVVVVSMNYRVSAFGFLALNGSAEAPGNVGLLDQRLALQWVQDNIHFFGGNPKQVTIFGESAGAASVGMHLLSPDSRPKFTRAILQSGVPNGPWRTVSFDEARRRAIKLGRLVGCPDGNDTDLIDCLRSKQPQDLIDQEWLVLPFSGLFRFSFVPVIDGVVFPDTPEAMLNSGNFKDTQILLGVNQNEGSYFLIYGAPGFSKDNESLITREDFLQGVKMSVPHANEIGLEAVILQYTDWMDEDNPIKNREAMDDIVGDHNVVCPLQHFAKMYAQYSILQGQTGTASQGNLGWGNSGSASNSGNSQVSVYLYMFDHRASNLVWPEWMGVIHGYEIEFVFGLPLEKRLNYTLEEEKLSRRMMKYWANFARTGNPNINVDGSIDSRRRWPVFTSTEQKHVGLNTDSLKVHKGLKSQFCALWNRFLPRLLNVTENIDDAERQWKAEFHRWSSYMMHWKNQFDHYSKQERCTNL
3',5'-cyclic-AMP phosphodiesterase 4D, sequence (Q08499 whole entry): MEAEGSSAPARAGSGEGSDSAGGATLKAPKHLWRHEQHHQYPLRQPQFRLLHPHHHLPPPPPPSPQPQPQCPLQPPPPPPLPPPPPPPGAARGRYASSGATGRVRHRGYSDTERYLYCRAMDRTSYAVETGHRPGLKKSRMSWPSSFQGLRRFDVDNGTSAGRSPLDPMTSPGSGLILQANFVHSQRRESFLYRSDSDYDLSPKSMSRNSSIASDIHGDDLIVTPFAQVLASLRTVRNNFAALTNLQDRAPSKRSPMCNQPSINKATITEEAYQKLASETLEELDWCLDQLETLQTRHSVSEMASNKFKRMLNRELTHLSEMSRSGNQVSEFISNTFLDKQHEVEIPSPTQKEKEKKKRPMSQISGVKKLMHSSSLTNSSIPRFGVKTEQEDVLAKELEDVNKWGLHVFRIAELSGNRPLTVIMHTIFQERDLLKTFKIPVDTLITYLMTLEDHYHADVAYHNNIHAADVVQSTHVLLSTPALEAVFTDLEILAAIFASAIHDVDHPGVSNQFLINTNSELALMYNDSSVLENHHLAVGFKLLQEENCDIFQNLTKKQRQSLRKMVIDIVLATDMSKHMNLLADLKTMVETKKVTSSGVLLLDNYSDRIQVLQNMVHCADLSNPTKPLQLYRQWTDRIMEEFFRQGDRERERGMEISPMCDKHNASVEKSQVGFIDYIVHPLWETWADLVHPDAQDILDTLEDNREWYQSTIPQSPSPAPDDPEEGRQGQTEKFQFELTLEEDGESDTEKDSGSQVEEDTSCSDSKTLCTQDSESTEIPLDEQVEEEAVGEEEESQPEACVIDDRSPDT

In the case of `CCn1ncc2c(NC3CCCCC3)c(C(=O)NCCCCCCCCNc3c4c(nc5cc(Cl)ccc35)CCCC4)cnc21`, the concentration for half-maximal inhibition (IC50) in experiment [1] was found to be 1080 nM; against Cholinesterase it was 314 nM; against Acetylcholinesterase, 812 nM.

`CCn1ncc2c(NC3CCCCC3)c(C(=O)NCCCCCCCCNc3c4c(nc5ccccc35)CCCC4)cnc21`: the IC50 in experiment [1] is 1310 nM; against Cholinesterase it was 320 nM; on Acetylcholinesterase, 392 nM.

With `CCn1ncc2c(NC3CCCCC3)c(C(=O)NCCCCNc3c4c(nc5cc(Cl)ccc35)CCCC4)cnc21`, the IC50 is 87 nM in experiment [1], 1280 nM against Cholinesterase and 335 nM on Acetylcholinesterase.

Regarding `CCn1ncc2c(NC3CCCCC3)c(C(=O)NCCCCNc3c4c(nc5ccccc35)CCCC4)cnc21`, the concentration for half-maximal inhibition (IC50) in experiment [1] is 108 nM; at Cholinesterase, 889 nM; against Acetylcholinesterase it was 333 nM.

For `CCn1ncc2c(NC3CCCCC3)c(C(=O)NCCCCCCCNc3c4c(nc5ccc(Cl)cc35)CCCC4)cnc21`, the IC50 in experiment [1] was 934 nM; against Cholinesterase, 245 nM; against Acetylcholinesterase, 391 nM.

As to `CCn1ncc2c(NC3CCCCC3)c(C(=O)NCCNc3c4c(nc5ccccc35)CCCC4)cnc21`, the results for the IC50 (in experiment [1]; on Cholinesterase; on Acetylcholinesterase) were 41 nM, 891 nM and 243 nM, respectively.

For `CCn1ncc2c(NC3CCCCC3)c(C(=O)NCCCCCCCNc3c4c(nc5ccccc35)CCCC4)cnc21`, the IC50 in experiment [1] is 1070 nM; on Cholinesterase, 324 nM; against Acetylcholinesterase, 316 nM.

Consider `CCn1ncc2c(NC3CCCCC3)c(C(=O)NCCCCCCNc3c4c(nc5cc(Cl)ccc35)CCCC4)cnc21`, for which the concentration for half-maximal inhibition (IC50) turned out to be 271 nM in experiment [1], 449 nM on Cholinesterase and 125 nM against Acetylcholinesterase.

As to `CCn1ncc2c(NC3CCCCC3)c(C(=O)NCCCCCNc3c4c(nc5ccccc35)CCCC4)cnc21`, the figures for the half-maximal inhibitory concentration (IC50) (in experiment [1]; against Cholinesterase; against Acetylcholinesterase) were 477 nM, 264 nM and 358 nM, respectively.

`CCn1ncc2c(NC3CCCCC3)c(C(=O)NCCNc3c4c(nc5cc(Cl)ccc35)CCCC4)cnc21`: the IC50 in experiment [1] came out at 25 nM; on Cholinesterase it was 713 nM; on Acetylcholinesterase, 412 nM.

Take `CCn1ncc2c(NC3CCCCC3)c(C(=O)NCCCCCCNc3c4c(nc5ccccc35)CCCC4)cnc21`: the IC50 is 501 nM in experiment [1], 332 nM on Cholinesterase and 149 nM against Acetylcholinesterase.

Turning to `CCn1ncc2c(NC3CCCCC3)c(C(=O)NCCCCCNc3c4c(nc5ccc(Cl)cc35)CCCC4)cnc21`, the half-inhibitory concentration (IC50) turned out to be 308 nM in experiment [1], 434 nM at Cholinesterase and 306 nM against Acetylcholinesterase.
